Results reported in patent US20020091124A1, “2-acyl indole derivatives and their use as antitumor agents” (priority 2000, published 2002).
Where two headings read alike, the source gives them in different places.

Key:
[1] = test system: human cervical carcinoma cell line KB/HeLa; assay: XTT cytotoxicity test, KB/HeLa; format: cell-based
bovine brain tubulin = test system: T1, bovine brain tubulin; assay: Bovine tubulin polymerization assay; format: biochemical; conditions: inhibition of tubulin polymerization; read-out: Tubulin-hemmung/ IC50
T1 construct: The tubulin used in the assay was isolated from bovine brain using cycles of polymerization and depolymerization
Protocol: In an in vitro test, selected compounds were tested for inhibition of polymerization of bovine brain. In this test, tubulin purified by cycles of polymerization and depolymerization, polymerization being initiated by addition of GTP and heating, is used.
The tubulin used in the assay was isolated from bovine brain using cycles of polymerization and depolymerization. […] The appropriate amount of test substance, dissolved in 100% DMSO, is pipetted to this mixture. 10 μl of purified bovine tubulin (50-60 μg of tubulin per well) are then added. […] 200 μl/well of decolorizing solution (25 mM NaOH, 50% ethanol, 0.05 mM EDTA) are finally added using a pipette. Following a 20 minute incubation at room temperature on a shaker (400 rpm), the absorption of 600 nm [sic] is measured in a photometer. What is calculated is the inhibition in % based on the 100% value of a positive control (which contains no test substance), and/or, if a concentration/activity curve is plotted, the lC50 value.

RKO p21 cells = assay: RKOp21 model, XTT assay; format: cell-based; conditions: Homo sapiens; Table 2; read-out: RKP p21 induced IC50
Excerpt: The model used for examining the cell cycle-specific action was the RKOp21 cell system (M. Schmidt et al. Oncogene19(20):2423-9, 2000). RKO is a human colon carcinoma line in which the cell cycle inhibitor p21^wafl is expressed induced by the ecdysone expression system and leads to an arrest of the cell cycle specifically in G1 and G2. Nonspecific substances inhibit proliferation independently of whether the RKO cell is arrested in G1 or G2 or not. In contrast, cell cycle-specific substances, such as, for example, tubulin inhibitors, are only cytotoxic if the cells are not arrested and the cell cycle is in progress. […] This underlines the arrest of the cell cycle in […] already found in the FACS analyses, and a cell cycle-specific action of the compounds tested.
The assay is carried out in 96-well plates. […] Comparison of the activity on induced and non-induced cells allows conclusions to be drawn about the mechanism of action (cell cycle specificity) of the therapeutics. Non-induced [sic] cells are sown at a cell count which is about four times higher than that of non-induced cells since, compared to non-induced cells, there is no further division during the assay (2×10^4 cells/well induced, about 0.6×10^4 cells/well not induced). The controls are untreated cells (+/− induction). Induction is carried out using 3 μM of muristerone A. On day 1, the cells are plated (+/− muristerone A) and incubated at 37° C. for 24 h. On day 2, the test substance is added (control DMSO) and incubation at 37° C. is continued for another 48 h, after which a standard XTT assay is carried out.

rat glioma cell line C6 = assay: XTT cytotoxicity test, C6; conditions: 45 h, read-out: IC50 C6
[2] = test system: human glioma cell line U118; assay: XTT cytotoxicity test, U118; conditions: 45 h, read-out: IC50 U118
[3] = test system: human glioma cell line U373; assay: XTT cytotoxicity test, U373; conditions: U373 MG, 45 h, read-out: IC50 U373
[4] = test system: human glioblastoma cell line U373; assay: Cell cycle analysis by FACS; conditions: U373, treated 24 h, FIG. 2
[5] = test system: human glioma cell line A-172; assay: XTT cytotoxicity test, A-172; conditions: A 172, 45 h, read-out: IC50 A-172
various glioma lines = assay: XTT cytotoxicity test, various glioma lines; format: cell-based
Excerpt: The publication by M. Medarde et al. 1998, Eur. J. Med. Chem. Vol. 33, pp. 71-77 describes combretastatin analogs which have antitumor action in a proliferation assay with the tumor cell lines P388 (leukemia, murine), A549 (pulmonary carcinoma, human), HT29 (colon carcinoma, human) and Mel28 (melanoma, human).

[6] = read-out: Zytotoxizität KB/HeLa IC50
[7] = XTT test, 45 h incubation, read-out: IC50 KB/HeLa

SMILES | IC50 (bovine brain tubulin) [nM] | IC50 [1, 6] | also measured
COc1ccc2[nH]c(C(=O)c3ccc(Cl)cc3)cc2c1 [Example D-65500, 5-methoxy-1H-2-indolyl(4-chlorophenyl)-1-methanone] | 4980 | ~1 µg/mL | 
COc1ccc2[nH]c(C(=O)c3ccc(Br)cc3)cc2c1 [Example D-65499, 5-methoxy-1H-2-indolyl(4-bromophenyl)-1-methanone] | 4300 | ~0.3 µg/mL | 
COc1ccc2[nH]c(C(=O)c3cc(OC)c(OC)c(OC)c3)cc2c1 [Example D-68150, 5-methoxy-1H-2-indolyl(3,4,5-trimethoxyphenyl)-1-methanone] | 10000 | 32 nM | IC50 ([1]; 45 h, read-out: IC50 KB/HeLa): 32 nM; IC50 (RKO p21 cells): 16.8 nM; IC50 (rat glioma cell line C6): 77 nM; IC50 [2]: 19.4 nM; IC50 [3]: 19.7 nM; cells in the metaphase of mitotic division (M-phase) [4]: concentration-dependent arrest of the cells in mitosis; IC50 [5]: 18.5 nM
NCOc1c(C(=O)c2ccccc2N)[nH]c2ccc(O)cc12 [Example D-70046] | 2440 | ~2 µg/mL | 
COc1ccc(C(=O)c2cc3cc(OC)ccc3[nH]2)c(OC)c1 [Example D-68172, 5-methoxy-1H-2-indolyl(2,4-dimethoxyphenyl)-1-methanone] | < 10000 |  | IC50 [1, 7]: 107 nM; IC50 (RKO p21 cells): 136 nM; IC50 (rat glioma cell line C6): 180 nM; IC50 [2]: 119 nM; IC50 [3]: 75 nM; IC50 [5]: 330 nM
COc1ccc2[nH]c(C(=O)c3cccs3)cc2c1 [Example D-70438] | 2700 |  | 
COc1ccc2[nH]c(C(=O)c3ccccc3N)cc2c1 [Example D-70047, 5-methoxy-1H-2-indolyl(2-aminophenyl)-1-methanone] | 6680 | ~2 µg/mL | 
O=C(O)c1ccc(C(=O)c2cc3ccccc3[nH]2)cc1 [Example 107, 4-(1H-2-indolylcarbonyl)-1-benzenecarboxylic acid] |  |  | melting point: > 220 °C
COc1ccc2[nH]c(C(=O)c3cc(C)ccc3C)cc2c1 [Example D-68906, 5-methoxy-1H-2-indolyl(2,5-dimethylphenyl)-1-methanone] | 5190 | ~0.2 µg/mL | 
COc1ccc2[nH]c(C(=O)c3cccc4ccccc34)cc2c1 [Example D-68213, 5-methoxy-1H-2-indolyl(1-naphthalenyl)-1-methanone] | 2930 | ~0.1 µg/mL | 
COc1ccc2[nH]c(C(=O)c3ccc(Cl)c(Cl)c3)cc2c1 [Example D-70026, 5-methoxy-1H-2-indolyl(3,4-dichlorophenyl)-1-methanone] | 2490 | ~0.1 µg/mL | melting point: 190 to 192 °C
COc1ccccc1C(=O)c1cc2cc(C)ccc2[nH]1 [Example D-70289, 5-methyl-1H-2-indolyl(2-methoxyphenyl)-1-methanone] | 3540 | ~0.1 µg/mL | 
CC(=O)O[C@H]1C(=O)[C@@]2(C)[C@H]([C@H](OC(=O)c3ccccc3)[C@]3(O)C[C@H](OC(=O)[C@H](O)[C@@H](NC(=O)c4ccccc4)c4ccccc4)C(C)=C1C3(C)C)[C@]1(OC(C)=O)CO[C@@H]1C[C@@H]2O [Taxol, reference compound] |  |  | IC50 (RKO p21 cells): 0.0078 µg/mL
COc1ccc2[nH]c(C(=O)c3ccccc3C)cc2c1 [Example D-70038, 5-methoxy-1H-2-indolyl(2-methylphenyl)-1-methanone] | 4840 | ~0.5 µg/mL | 

Now from value to compound, other results behind:

IC50 (bovine brain tubulin) [nM] | SMILES | IC50 [1, 6] | also measured
1030 | COc1ccc2[nH]c(C(=O)c3ccccc3F)cc2c1 [Example D-68888, 2-fluorophenyl(5-methoxy-1H-2-indolyl)-1-methanone] | ~0.2 µg/mL | 
1460 | COc1ccc2[nH]c(C(=O)c3cccc(C(F)(F)F)c3)cc2c1 [Example D-68901, 5-methoxy-1H-2-indolyl(3-trifluoromethylphenyl)-1-methanone] | ~0.01 µg/mL | 
660 | COc1ccc2[nH]c(C(=O)c3cccc(O)c3)cc2c1 [Example D-81755] | 0.063 µg/mL | 
990 | COc1ccc2[nH]c(C(=O)c3cccc(N)c3)cc2c1 [Example D-81167, 5-methoxy-1H-2-indolyl(3-aminophenyl)-1-methanone] | 0.089 µg/mL | 
1740 | COc1ccc2[nH]c(C(=O)c3cccc(OC(F)(F)F)c3)cc2c1 [Example D-81194] | 0.086 µg/mL | 
2120 | COc1ccc2[nH]c(C(=O)c3ccccc3OC)cc2c1 [Example D-68143, 5-methoxy-1H-2-indolyl(2-methoxyphenyl)-1-methanone] |  | IC50 [1, 7]: 35 nM; IC50 (RKO p21 cells): 28 nM; IC50 (rat glioma cell line C6): 98 nM; IC50 [2]: 23 nM; IC50 [3]: 29 nM; IC50 [5]: 73 nM
2050 | COc1ccc2[nH]c(C(=O)c3cccc(SC(F)F)c3)cc2c1 [Example D-81196] | 0.134 µg/mL | 
1500 | COc1ccc2[nH]c(C(=O)c3ccc(C)cc3)cc2c1 [Example D-68887, 5-methoxy-1H-2-indolyl(4-methylphenyl)-1-methanone] | ~0.3 µg/mL | 
90 | CC[C@]1(O)C[C@H]2CN(CCc3c([nH]c4ccccc34)[C@@](C(=O)OC)(c3cc4c(cc3OC)N(C=O)[C@H]3[C@@](O)(C(=O)OC)[C@H](OC(C)=O)[C@]5(CC)C=CCN6CC[C@]43[C@@H]65)C2)C1 [Vincristin, Vincristine, reference compound] |  | 
810 | COc1cc(OC)cc(C(=O)c2cc3cc(C)ccc3[nH]2)c1 [Example D-70316, 5-methyl-1H-2-indolyl(3,5-dimethoxyphenyl)-1-methanone] |  | IC50 (RKO p21 cells): 17.9 nM; melting point: 141 to 142 °C
850 | COc1ccc2[nH]c(C(=O)c3cccc(OC(=O)CCO)c3)cc2c1 [Example D-81756] | 0.093 µg/mL | 
390 | COc1ccc2[nH]c(C(=O)c3cccc(F)c3)cc2c1 [Example D-81187] |  | IC50 (RKO p21 cells): 16.8 nM
2420 | COc1cccc(C(=O)c2cc3cc(OC)ccc3[nH]2)c1 [Example D-68144, 5-methoxy-1H-2-indolyl(3-methoxyphenyl)-1-methanone] |  | IC50 [1, 7]: 6.6 nM; IC50 (RKO p21 cells): 3.6 nM; factor more active than compound 4d (various glioma lines; compared with Medarde et al.): 40-60; IC50 (various glioma lines; read-out: inhibitory activity IC50 in various glioma lines): 5 to 15 nM; IC50 (rat glioma cell line C6): 9.6 nM; IC50 [2]: 8.3 nM; IC50 [3]: 5 nM; cells in the metaphase of mitotic division (M-phase) [4]: concentration-dependent arrest of the cells in mitosis; IC50 [5]: 15 nM
